From PMC3711248 (Journal of medicinal chemistry, 2013)

Legend:
[1] = tested on: double-positive (DP) thymocytes; assay: Nur77 expression; details: […] µM, […] at 37°C, thymocytes from Nur77GFP mice; DMSO MFI=604
[2] = tested on: JTAg cells; assay: CD69 surface expression on JTAg cells; details: […] µM, 4.5 hours at 37°C, resting JTAg cells; DMSO MFI=451
[3] = tested on: double-positive (DP) thymocytes; assay: CD69 surface expression on mouse thymocytes; details: […] µM, […] at 37°C, thymocytes from Nur77GFP mice; DMSO MFI=381
[4] = tested on: JTAg cells; assay: Phospho-flow cytometry of ZAP-70; details: […] µM, 30 min pre-incubation, C305 stimulation 2 min, vs DMSO
[5] = tested on: mice; assay: Passive systemic anaphylaxis; assay type: in vivo, mouse; details: PEP+/+ mice, 8b (20 µM) IP 1 h before DNP-HSA i.v., vs untreated groups
[6] = tested on: BMMC; assay: Mast cell degranulation
[7] = tested on: BMMC; assay: NF-AT luciferase reporter gene analysis in BMMC; assay type: cell-based, mouse
[8] = target: T1, LYP (Homo sapiens, UniProt Q9Y2R2); assay type: biochemical
T1 sequence (Q9Y2R2 1-303): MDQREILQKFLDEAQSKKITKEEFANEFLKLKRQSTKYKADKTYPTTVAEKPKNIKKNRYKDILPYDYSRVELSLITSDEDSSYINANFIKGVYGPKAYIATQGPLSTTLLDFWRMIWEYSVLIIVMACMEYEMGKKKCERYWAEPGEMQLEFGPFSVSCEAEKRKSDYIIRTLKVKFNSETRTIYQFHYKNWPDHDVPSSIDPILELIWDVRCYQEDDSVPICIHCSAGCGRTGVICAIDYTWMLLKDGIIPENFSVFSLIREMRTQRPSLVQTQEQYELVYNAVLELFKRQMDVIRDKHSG

Structure (SMILES) | Nur77 expression by GFP cell fluorescence, MFI [1] | CD69 expression, median fluorescence intensity (MFI) [2] | CD69 expression, MFI [3] | basal and TCR-stimulated phosphorylation of ZAP-70 on Tyr319 [4] | susceptibility to passive systemic anaphylaxis (change in body temperature) [5] | antigen-stimulated degranulation (release of β-hexosaminidase) ([6]; PEP+/+ BMMC, C28 5 µM, 8b 5 and 20 µM for 1 h, DNP-HSA 200 ng/ml) | residual degranulation ([6]; PEP−/− BMMC) | basal and antigen-mediated NF-AT luciferase activity ([7]; PEP+/+ BMMC, C28 5 µM, 8b 5 and 20 µM for 1 h, DNP-HSA 8 h) | residual NF-AT activity ([7]; PEP−/− BMMC) | improvement of LYP inhibitory potency compared to Core 1 [8]
O=C(COc1ccc(-c2oc3cc(O)c(C(=O)O)cc3c2C#Cc2cccc(Cl)c2)cc1)NC1CC1 [Compound 8b, 3-((3-Chlorophenyl)ethynyl)-2-(4-(2-(cyclopropylamino)-2-oxoethoxy)phenyl)-6-hydroxybenzofuran-5-carboxylic Acid] | 1120 | 616 | 758 | increased | less susceptible to PSA | down-regulated | Neither compunds affected residual degranulation | dose dependent down-regulation | No significant effect | 
O=C(O)c1cc2c(C#Cc3cccc(Cl)c3)c(-c3ccccc3)oc2cc1O [Compound 4c] |  |  |  |  |  |  |  |  |  | 50 fold
O=C(O)c1cc2c(C#Cc3ccc(Oc4ccccc4)cc3)c(-c3ccccc3)oc2cc1O [Compound 4i] |  |  |  |  |  |  |  |  |  | 50 fold
